Where two headings read alike, the source gives them in different places. Square brackets hold non-standard residues; d marks the D form. Peptide text beside a SMILES is read from it. Phe(4-I) = N[C@@H](Cc1ccc(I)cc1)C(=O)O; dPhe(4-I) = N[C@H](Cc1ccc(I)cc1)C(=O)O; 2Nal = N[C@@H](Cc1ccc2ccccc2c1)C(=O)O; d2Nal = N[C@H](Cc1ccc2ccccc2c1)C(=O)O
What was measured:
mMC1R = mMC1R (Mus musculus, UniProt Q01727); test: AlphaScreen cAMP agonist assay, HEK293 cells stably expressing mMC1R; format: cell-based; conditions: for mMC1R agonist activity in words: full agonist = 90% of maximal NDP-MSH signal; for mMC1R partial agonist percentage of receptor activation relative to NDP-MSH: partial agonists
mMC4R [1] = molecular target: T1, mMC4R (Mus musculus, UniProt P56450); conditions: cited from earlier work
mMC3R [2] = molecular target: T2, mMC3R (Mus musculus, UniProt P33033); conditions: earlier report; cited from earlier work
mMC4R [3] = molecular target: T1, mMC4R; conditions: earlier report; cited from earlier work
[4] = tested on: mouse B16-F10 melanoma cells; conditions: 30 and 100 μM, 100 nM α-MSH, 72 h; cited from earlier work
[5] = compared to a control formulation lacking glycinamide; cited from earlier work
MC5R = conditions: cited from earlier work
MC1R = conditions: at 2 μM; cited from earlier work
MC3R = conditions: at 2 μM; cited from earlier work
MC4R = conditions: at 2 μM; cited from earlier work
mMC3R [6] = molecular target: T2, mMC3R; test: AlphaScreen cAMP agonist assay, HEK293 cells stably expressing mMC3R; format: cell-based; conditions: at 100 μM
mMC5R = mMC5R (Mus musculus, UniProt P41149); test: AlphaScreen cAMP agonist assay, HEK293 cells stably expressing mMC5R; format: cell-based; conditions: for mMC5R percent maximal stimulatory response (compared to NDP-MSH): at 100 μM; for mMC5R EC50: agonist, >100,000 = no agonist activity up to 100 μM
hMC4R = conditions: read-out: hMC4R IC50; tripeptide SAR study; cited from earlier work
[7] = Solubility in solvents compatible with RP-HPLC
mMC4R [8] = molecular target: T1, mMC4R; conditions: mMC4R versus mMC3R antagonist potency
human (h)MC4R = conditions: cited from earlier work
hMC3R = conditions: cited from earlier work
hMC1R = conditions: cited from earlier work
mMC3R [9] = molecular target: T2, mMC3R; conditions: miniAGRP(87–120), β-galactosidase reporter gene assay; cited from earlier work
mMC4R [10] = molecular target: T1, mMC4R; conditions: miniAGRP(87–120), β-galactosidase reporter gene assay; cited from earlier work
hMC5R = conditions: cited from earlier work

T1 sequence (P56450 whole entry): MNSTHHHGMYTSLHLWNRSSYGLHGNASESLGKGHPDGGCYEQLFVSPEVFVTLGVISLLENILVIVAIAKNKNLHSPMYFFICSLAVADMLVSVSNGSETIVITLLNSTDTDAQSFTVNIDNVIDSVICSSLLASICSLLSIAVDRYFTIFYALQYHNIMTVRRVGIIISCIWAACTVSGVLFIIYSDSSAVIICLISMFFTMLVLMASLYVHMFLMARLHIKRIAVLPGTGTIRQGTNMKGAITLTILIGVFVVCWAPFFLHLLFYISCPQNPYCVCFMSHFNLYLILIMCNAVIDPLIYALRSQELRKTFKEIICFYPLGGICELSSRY
T2 sequence (P33033 whole entry): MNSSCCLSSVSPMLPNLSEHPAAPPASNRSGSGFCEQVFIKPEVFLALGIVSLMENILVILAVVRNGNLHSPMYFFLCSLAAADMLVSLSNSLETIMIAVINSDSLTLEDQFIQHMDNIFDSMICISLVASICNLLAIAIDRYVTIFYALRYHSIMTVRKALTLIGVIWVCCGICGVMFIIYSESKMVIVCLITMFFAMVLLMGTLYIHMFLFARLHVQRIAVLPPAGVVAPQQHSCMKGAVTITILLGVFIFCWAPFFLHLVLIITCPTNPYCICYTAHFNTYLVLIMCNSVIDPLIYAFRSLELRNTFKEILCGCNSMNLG
Chain of mMC5R (P41149 whole entry): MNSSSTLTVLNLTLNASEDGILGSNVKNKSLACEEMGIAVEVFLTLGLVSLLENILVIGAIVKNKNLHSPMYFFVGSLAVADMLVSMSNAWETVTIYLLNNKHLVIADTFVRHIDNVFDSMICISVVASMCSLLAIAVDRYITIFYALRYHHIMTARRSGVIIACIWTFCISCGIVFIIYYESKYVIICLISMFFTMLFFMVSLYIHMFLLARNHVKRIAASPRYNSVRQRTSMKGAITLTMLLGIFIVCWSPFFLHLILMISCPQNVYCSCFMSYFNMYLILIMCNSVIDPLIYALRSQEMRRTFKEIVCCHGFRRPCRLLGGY
Chain of mMC1R (Q01727 whole entry): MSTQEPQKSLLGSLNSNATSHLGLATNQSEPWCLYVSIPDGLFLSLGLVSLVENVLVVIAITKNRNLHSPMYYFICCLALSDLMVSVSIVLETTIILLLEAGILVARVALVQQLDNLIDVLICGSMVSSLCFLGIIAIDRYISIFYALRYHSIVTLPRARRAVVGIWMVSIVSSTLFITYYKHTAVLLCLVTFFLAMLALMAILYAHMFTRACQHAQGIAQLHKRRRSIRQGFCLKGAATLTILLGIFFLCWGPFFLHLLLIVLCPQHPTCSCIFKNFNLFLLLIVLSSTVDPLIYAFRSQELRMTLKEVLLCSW

Compound: CC(=O)N[C@H](Cc1ccc2ccccc2c1)C(=O)N[C@@H](CCCNC(=N)N)C(=O)N[C@H](Cc1ccc(I)cc1)C(=O)N[C@H](Cc1ccc2ccccc2c1)C(N)=O [Peptide 20, Ac-DNal(2’)-Arg-DPhe(pI)-DNal(2’)-NH2] (Ac-[d2Nal]R[dPhe(4-I)][d2Nal]-NH2)
- mMC1R agonist activity in words (mMC1R): full agonist activity
- mMC4R partial agonist efficacy, % of the maximal NDP-MSH signal, previously reported (mMC4R [1]; earlier report): 37%
- mMC3R pA2, previously reported (mMC3R [2]): 5.6
- mMC4R pA2, previously reported (mMC4R [3]): 5.9

Compound: H-RLWG-NH2
- effect on α-MSH-stimulated melanin production [4]: inhibited α-MSH-stimulated melanin production

Compound: NCC(N)=O [glycinamide]
- effect on α-MSH-stimulated melanin production [4]: possessed anti-melanogenic activity
- effect on facial skin pigmentation [5]: decreased melanin index and skin pigmentation

Compound: Ac-Ser-Tyr-Ser-Nle-Glu-Oic-DBip-Pip-Trp-Gly-Lys-Pro-Val-NH2 (WGKPV; N-terminal Ac-Ser-Tyr-Ser-Nle-Glu-Oic-DBip-Pip; C-terminal amide; printed: Trp-Gly-Lys-Pro-Val-)
- MC5R agonist potency in words (MC5R): sub-nanomolar MC5R agonist

Compound: Ac-Nle-c[Asp-Oic-DBip-Pip-Trp-Lys]-NH2
- EC50 (MC5R; read-out: concentration activating the MC5R): 0.00099 µM
- MC1R activation (MC1R): up to 40%
- MC3R activation (MC3R): up to 40%
- MC4R activation (MC4R): up to 40%

Compound: Ac-His-DPhe-Arg-Trp-NH2 [reference compound]
- mMC4R agonist potency in words (mMC4R [1]): nanomolar agonist potency

Compound: CC(=O)N[C@H](Cc1ccc(I)cc1)C(=O)N[C@@H](CCCNC(=N)N)C(=O)N[C@H](Cc1ccc2ccccc2c1)C(=O)N[C@H](Cc1ccc2ccccc2c1)C(N)=O [Peptide 38, Ac-DPhe(pI)-Arg-DNal(2’)-DNal(2’)-NH2] (Ac-[dPhe(4-I)]R[d2Nal][d2Nal]-NH2)
- mMC3R percent maximal stimulatory response (compared to NDP-MSH) (mMC3R [6]): 45% @100μM
- mMC5R percent maximal stimulatory response (compared to NDP-MSH) (mMC5R): 20% @100μM

Compound: Ac-DNal(2’)-Arg-DNal(2’)
- IC50 (hMC4R): 0.0365 µM

Compound: Ac-Oic-DBip-Pip-Trp-NH2
- EC50 (MC5R; read-out: MC5R agonist potency): 1.2 µM

Compound: CC(=O)N[C@H](Cc1ccc2ccccc2c1)C(=O)N[C@H](Cc1ccc2ccccc2c1)C(=O)N[C@H](Cc1ccc2ccccc2c1)C(=O)N[C@H](Cc1ccc2ccccc2c1)C(N)=O [Ac-DNal(2’)-DNal(2’)-DNal(2’)-DNal(2’)-NH2] (Ac-[d2Nal][d2Nal][d2Nal][d2Nal]-NH2)
- solubility in solvents compatible with RP-HPLC [7]: insoluble

Compound: CC(=O)N[C@H](Cc1ccc2ccccc2c1)C(=O)N[C@@H](CCCNC(=N)N)C(=O)N[C@H](Cc1ccc2ccccc2c1)C(=O)N[C@@H](CCCNC(=N)N)C(N)=O [Peptide 15, Ac-DNal(2’)-Arg-DNal(2’)-Arg-NH2] (Ac-[d2Nal]R[d2Nal]R-NH2)
- mMC1R partial agonist percentage of receptor activation relative to NDP-MSH (mMC1R): 60 % NDP
- selectivity for the mMC4R over the mMC3R (antagonist) (mMC4R [8]): more than 150 fold

Compound: CC(=O)N[C@H](Cc1ccc(I)cc1)C(=O)N[C@@H](CCCNC(=N)N)C(=O)N[C@@H](Cc1c[nH]c2ccccc12)C(=O)N[C@@H](CCCNC(=N)N)C(N)=O [Peptide 42, Ac-DPhe(pI)-Arg-Trp-Arg-NH2] (Ac-[dPhe(4-I)]RWR-NH2)
- mMC1R partial agonist percentage of receptor activation relative to NDP-MSH (mMC1R): 50 % NDP
- mMC3R percent maximal stimulatory response (compared to NDP-MSH) (mMC3R [6]): 25% @100μM

Compound: H-RFWG-NH2
- effect on α-MSH-stimulated melanin production [4]: inhibited α-MSH-stimulated melanin production

Compound: CC(=O)N[C@H](Cc1ccc2ccccc2c1)C(=O)N[C@@H](CCCNC(=N)N)C(=O)N[C@H](Cc1ccc2ccccc2c1)C(=O)N[C@H](Cc1ccc2ccccc2c1)C(N)=O [Peptide 14, Ac-DNal(2’)-Arg-DNal(2’)-DNal(2’)-NH2] (Ac-[d2Nal]R[d2Nal][d2Nal]-NH2)
- mMC1R partial agonist percentage of receptor activation relative to NDP-MSH (mMC1R): 85 % NDP
- mMC3R percent maximal stimulatory response (compared to NDP-MSH) (mMC3R [6]): 50% @100μM
- mMC5R percent maximal stimulatory response (compared to NDP-MSH) (mMC5R): 20% @100μM

Compound: Ac-DNal(2’)-Arg-Nal(2’) [MCL0020]
- binding affinity at hMC4R (human (h)MC4R): 11.63 nM
- binding affinity at hMC3R (hMC3R): 1115 nM
- concentration up to which radiolabeled NDP-MSH was not displaced at hMC1R (hMC1R): > 10 µM
- IC50 (hMC4R): 0.0154 µM

Compound: CC(=O)N[C@H](Cc1ccc(I)cc1)C(=O)N[C@@H](CCCNC(=N)N)C(=O)N[C@H](Cc1ccc(I)cc1)C(=O)N[C@H](Cc1ccc2ccccc2c1)C(N)=O [Peptide 44, Ac-DPhe(pI)-Arg-DPhe(pI)-DNal(2’)-NH2] (Ac-[dPhe(4-I)]R[dPhe(4-I)][d2Nal]-NH2)
- mMC1R agonist activity in words (mMC1R): full agonist activity
- mMC3R percent maximal stimulatory response (compared to NDP-MSH) (mMC3R [6]): 40% @100μM
- mMC5R percent maximal stimulatory response (compared to NDP-MSH) (mMC5R): 65% @100μM

Compound: CC(=O)N[C@H](Cc1ccc2ccccc2c1)C(=O)N[C@@H](CCCNC(=N)N)C(=O)N[C@@H](Cc1ccc2ccccc2c1)C(=O)N[C@H](Cc1ccc2ccccc2c1)C(N)=O [Peptide 23, Ac-DNal(2’)-Arg-Nal(2’)-DNal(2’)-NH2] (Ac-[d2Nal]R[2Nal][d2Nal]-NH2)
- mMC3R percent maximal stimulatory response (compared to NDP-MSH) (mMC3R [6]): 30% @100μM
- mMC5R percent maximal stimulatory response (compared to NDP-MSH) (mMC5R): 25% @100μM

Compound: CC(=O)N[C@H](Cc1ccc2ccccc2c1)C(=O)N[C@@H](CCCNC(=N)N)C(=O)N[C@@H](Cc1c[nH]c2ccccc12)C(=O)N[C@H](CCCCN)C(N)=O [Peptide 16, Ac-DNal(2’)-Arg-Trp-DLys-NH2] (Ac-[d2Nal]RW[dK]-NH2)
- selectivity for the mMC4R over the mMC3R (antagonist) (mMC4R [8]): more than 150 fold

Compound: CC(=O)N[C@H](Cc1ccc(I)cc1)C(=O)N[C@H](Cc1ccc2ccccc2c1)C(=O)N[C@@H](Cc1c[nH]c2ccccc12)C(=O)N[C@@H](CCCNC(=N)N)C(N)=O [Peptide 30, Ac-DPhe(pI)-DNal(2’)-Trp-Arg-NH2]
- mMC5R EC50 (mMC5R): inactive

Compound: miniAGRP(87–120): truncated agouti-related protein melanocortin receptor antagonist (CVRLHESCLGQQVPCCDPCATCYCRFFNAFCYCR; UniProt O00253 87-120, looked up, fragment)
- mMC3R pA2 (mMC3R [9]): 8.1±0.1
- mMC4R pA2 (mMC4R [10]): 8.5±0.1

Compound: Ac-Nle-c[Asp-Pro-DNal(2’)-Arg-Trp-Lys]-NH2 [PG901]
- hMC5R agonist potency in words (hMC5R): sub-nanomolar agonist potency

Compound: CC(=O)N[C@@H](Cc1ccc(I)cc1)C(=O)N[C@@H](Cc1ccc2ccccc2c1)C(=O)N[C@@H](Cc1ccc(I)cc1)C(=O)N[C@@H](CCCNC(=N)N)C(N)=O [Peptide 49, Ac-Phe(pI)-Nal(2’)-Phe(pI)-Arg-NH2] (Ac-[Phe(4-I)][2Nal][Phe(4-I)]R-NH2)
- mMC1R agonist activity in words (mMC1R): partially stimulate
- mMC5R EC50 (mMC5R): did not possess agonist activity

Compound: CC(=O)N[C@H](Cc1ccc2ccccc2c1)C(=O)N[C@@H](CCCNC(=N)N)C(=O)N[C@H](Cc1ccc2ccccc2c1)C(=O)N[C@H](CCCCN)C(N)=O [Peptide 13, Ac-DNal(2’)-Arg-DNal(2’)-DLys-NH2] (Ac-[d2Nal]R[d2Nal][dK]-NH2)
- mMC1R partial agonist percentage of receptor activation relative to NDP-MSH (mMC1R): 30 % NDP
- selectivity for the mMC4R over the mMC3R (antagonist) (mMC4R [8]): more than 150 fold

Source: publication PMC8533642 (Journal of medicinal chemistry, 2021)
